This note sets out measurements from patent US12180202B1, “2-[(1,3-benzothiazol-2-yl)imino]-5,5-diphenylimidazolidin-4-one as an antimicrobial compound” (KING FAISAL UNIVERSITY, priority 2023, dated 2024).

What all share (type): cell-based
In one test the test system is Escherichia coli. As to the kind of experiment: agar plate disc-diffusion, antibacterial activity. The following applies: nutrient agar, 37° C., 48 h. As for the experimental part: (§1) The agar plate disc-diffusion method was applied. […] The discs were then placed onto the surface of agar plates (nutrient agar for bacteria and Sabouraud's dextrose agar for fungi) seeded with the test organism. Each plate contained 15 mL of the agar medium, previously seeded with 0.2 mL of the broth culture of each organism pregrown for 18 hours. The plates were incubated at 37° C. for 48 h, and 72 h for fungi. The inhibition zones were measured in mm. Discs impregnated with DMSO were used as a control, and its inhibition zone was subtracted from the tested compound actual inhibition zone.
(In general: In agar diffusion tests the substance spreads into inoculated agar from a disc or well.)

The subject of a further test is Bacillus cereus. Put plainly: agar plate disc-diffusion, antibacterial activity. The following applies: nutrient agar, 37° C., 48 h. Here is the method: as §1
The subject of another test is Pseudomonas aeruginosa. Put plainly: agar plate disc-diffusion, antibacterial activity. The following applies: nutrient agar, 37° C., 48 h. As for the experimental part: as §1
A further test has as its system Staphylococcus aureus. As to the kind of experiment: agar plate disc-diffusion, antibacterial activity. The following applies: nutrient agar, 37° C., 48 h. As for the experimental part: as §1
Another test relates to Aspergillus flavus. As to the kind of experiment: agar plate disc-diffusion, antifungal activity. The following applies: Sabouraud's dextrose agar, 72 h. As for the experimental part: as §1
The test system of test [1] is Chrysosporium keratinophilum. As to the kind of experiment: agar plate disc-diffusion, antifungal activity. The following applies: Sabouraud's dextrose agar, 72 h. Here is the method:
as §1

Another test concerns different microbes. As to the kind of experiment: antimicrobial activity screening, overall statement. The following applies: against different microbes (bacteria and fungi of Tables 1 and 2). Here is the method: The agar plate disc-diffusion method was applied. Sterilized filter papers (6 mm in diameter) were wetted with 10 μL of a solution of 2-[(1,3-benzothiazol-2-yl)imino]-5,5-diphenylimidazolidin-4-one (3) to be tested, containing 10 mg/mL in DMSO, and the discs were allowed to air dry. The discs were then placed onto the surface of agar plates (nutrient agar for bacteria and Sabouraud's dextrose agar for fungi) seeded with the test organism. Each plate contained 15 mL of the agar medium, previously seeded with 0.2 mL of the broth culture of each organism pregrown for 18 hours. The plates were incubated at 37° C. for 48 h, and 72 h for fungi. The inhibition zones were measured in mm. Discs impregnated with DMSO were used as a control, and its inhibition zone was subtracted from the tested compound actual inhibition zone.

Where [2] appears, read: B = concentration of comp. = 30,000 μL.
The mark [3] stands for this setting: C = concentration of comp. = 50,000 μL.
[4] abbreviates: A = concentration of comp. = 10,000 μL.
Where [5] appears, read: A = concentration of comp. = 10 mg/mL.

Structures are written as SMILES.

On to `O=C(O)c1cn(C2CC2)c2cc(N3CCNCC3)c(F)cc2c1=O` [Cip., ciprofloxacin, reference compound], for which the inhibition zone with Escherichia coli (A =) is 30 mm; with Escherichia coli (setting [2]), 39 mm; in the test on Escherichia coli (setting [3]), 60 mm; in the test on Bacillus cereus (setting [4]), 29 mm; with Bacillus cereus (setting [2]), 30 mm; with Bacillus cereus (setting [3]) it was 42 mm. Besides, the inhibition zone with Pseudomonas aeruginosa (setting [4]) is on record as 29 mm; in the test with Pseudomonas aeruginosa (setting [2]), 30 mm; with Pseudomonas aeruginosa (setting [3]) it was 53 mm; in the test on Staphylococcus aureus (setting [4]), 43 mm; in the test on Staphylococcus aureus (setting [2]), 44 mm; in the test on Staphylococcus aureus (setting [3]) it was 53 mm. Further, the inhibition zone with Aspergillus flavus (setting [5]) was found to be 29 mm; in the test on Aspergillus flavus (setting [2]) it was 30 mm; in the test on Aspergillus flavus (setting [3]) it was 42 mm; in test [1] (setting [4]) it was 29 mm; in test [1] (setting [2]), 30 mm; in test [1] (setting [3]), 53 mm.
As to `O=C1N/C(=N/c2nc3ccccc3s2)NC1(c1ccccc1)c1ccccc1` [Compound 3, 2-[(1,3-benzothiazol-2-yl)imino]-5,5-diphenylimidazolidin-4-one], the antimicrobial activities result in the test on different microbes is listed as “excellent antimicrobial activities”. The inhibition zone was 26 mm in the test with Escherichia coli (A =); 34 mm in the test on Escherichia coli (setting [2]); 50 mm with Escherichia coli (setting [3]); 20 mm in the test with Bacillus cereus (setting [4]); 23 mm with Bacillus cereus (setting [2]); 35 mm in the test on Bacillus cereus (setting [3]). Besides, the inhibition zone in the test on Pseudomonas aeruginosa (setting [4]) is on record as 24 mm; in the test on Pseudomonas aeruginosa (setting [2]) it was 28 mm; with Pseudomonas aeruginosa (setting [3]) it was 45 mm; in the test with Staphylococcus aureus (setting [4]), 19 mm; in the test with Staphylococcus aureus (setting [2]), 23 mm; in the test on Staphylococcus aureus (setting [3]) it was 35 mm. The inhibition zone in the test with Aspergillus flavus (setting [5]) amounted to 21 mm; in the test on Aspergillus flavus (setting [2]) it was 25 mm; with Aspergillus flavus (setting [3]), 31 mm; in test [1] (setting [4]), 26 mm; in test [1] (setting [2]) it was 29 mm; in test [1] (setting [3]) it was 45 mm.
